Test [1] addresses T1, Tyrosine-protein phosphatase non-receptor type 1 (Homo sapiens, UniProt P18031).
T1 sequence (P18031 whole entry): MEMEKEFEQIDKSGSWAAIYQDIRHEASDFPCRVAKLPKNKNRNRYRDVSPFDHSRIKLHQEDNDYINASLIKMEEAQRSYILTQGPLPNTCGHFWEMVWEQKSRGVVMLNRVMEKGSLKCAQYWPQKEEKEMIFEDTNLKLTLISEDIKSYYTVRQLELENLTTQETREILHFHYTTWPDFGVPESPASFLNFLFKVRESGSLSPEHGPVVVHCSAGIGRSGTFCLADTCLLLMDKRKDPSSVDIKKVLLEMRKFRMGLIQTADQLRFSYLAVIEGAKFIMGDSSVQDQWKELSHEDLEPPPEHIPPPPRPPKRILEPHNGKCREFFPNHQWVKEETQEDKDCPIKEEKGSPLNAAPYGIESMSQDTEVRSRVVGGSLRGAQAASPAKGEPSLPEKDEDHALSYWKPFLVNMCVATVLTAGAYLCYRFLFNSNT
Put plainly: Inhibition of human recombinant PTP1B.

The target in test [2] is T1, Tyrosine-protein phosphatase non-receptor type 1. Briefly: Inhibition of human recombinant PTP1B by Lineweaver-Burke plot.

pIC50, pKi: −log10 of the molar value.

For the compound `O=C1C[C@@H]2c3ccccc3O[C@H]3c4cc(O)ccc4-c4c(O)cc(O)c1c4[C@H]23` [OHIOENSIN A], the pIC50 in test [1] is 5.37.

For `COc1cc(O)c2c3c1-c1c(O)cccc1[C@@H]1Oc4ccccc4[C@@H](CC2=O)[C@@H]31` [OHIOENSIN C], in test [1], the negative-log IC50 (pIC50) was 5.12.

Consider `O=C1C[C@]2(O)c3ccccc3O[C@H]3c4cc(O)ccc4-c4c(O)cc(O)c1c4[C@@H]32` [OHIOENSIN F], for which the negative-log IC50 (pIC50) in test [1] was 5.46. For the same compound, the negative-log Ki (pKi) in test [2] is 5.82.

In the case of `O=C1c2c(O)cc(O)c3c2[C@@H]2[C@@H](c4ccccc4O[C@H]2c2cccc(O)c2-3)[C@H]1O` [OHIOENSIN G], the pIC50 in test [1] was 5.25.

These data come from ChEMBL document CHEMBL1143209, “Ohioensins F and G: protein tyrosine phosphatase 1B inhibitory benzonaphthoxanthenones from the Antarctic moss Polytrichastrum alpinum” (Bioorg Med Chem Lett, 2008).
